Key:
[1] = Mutant factor of the compound against mu-[K303E] with Opioid receptor kappa 1 for binding affinity
[2] = Mutant factor against mu-[K303E] with Opioid receptor kappa 1 for binding affinity

Row | Structure (SMILES) | Ki [1] | Ki [2]
1 | NC(N)=Nc1ccc2[nH]c3c(c2c1)C[C@@]1(O)[C@H]2Cc4ccc(O)c5c4[C@@]1(CCN2CC1CC1)[C@H]3O5 | 0.06 nM | 
2 | N#CN=C(N)Nc1ccc2[nH]c3c(c2c1)C[C@@]1(O)C2Cc4ccc(O)c5c4[C@@]1(CCN2CC1CC1)[C@H]3O5 [5'-[N-(N'-Cyano)guanidinyl]-17-cyclopropylmethyl-6,7-didehydro-4,5alpha-epoxy-3,14-dihydroxyindolo[2',3':6,7]morphinan] |  | 0.29 nM
3 | Oc1ccc2c3c1O[C@H]1c4[nH]c5c(c4C[C@@]4(O)[C@@H](C2)N(CC2CC2)CC[C@]314)C[C@@]1(O)[C@H]2Cc3ccc(O)c4c3[C@@]1(CCN2CC1CC1)[C@H]5O4 [C18130] |  | 0.77 nM

From BindingDB's records for doi:10.1021/jm9805182 (University of Minnesota, 1999)
